# Reference: patent US9828364B2, “Pyrazole compounds as BTK inhibitors” (Boehringer Ingelheim International GmbH, priority 2014, dated 2017)
# Tests used:
# [1] = target: T1, full-length human His-tagged BTK (Homo sapiens, UniProt Q06187); assay: BTK HTRF assay (Cisbio KinEASE-TK); type: biochemical; details: 6 nM BTK, 30 uM ATP, 15 min preincubation
# T1 construct: 6 nM of full-length human His-tagged BTK (Life Technologies cat # PV3587); His; purchased Life Technologies PV3587
# Procedure: Description of Biological Properties BTK Assay
# An HTRF assay (Cisbio KinEASE-TK cat #62TK0PEC) was performed to quantitate the ability of test compounds to inhibit BTK mediated phosphorylation of substrate. Assays were assembled in 384 well plates where 6 nM of full-length human His-tagged BTK (Life Technologies cat # PV3587) and test compound at varying concentrations were preincubated for 15 minutes at 28° C. Then, 1 uM of TK substrate-biotin and 30 uM ATP were added and incubated for an additional 30 minutes at 28° C. Phospohrylation was detected by adding 62.5 nM Streptavidin-XL665 and TK-Antibody Cryptate diluted 1:100 in HTRF detection buffer (Cisbio cat #62SDBRDF) and incubated for 60 minutes at RT. The plate was read on an Envision plate reader and the fluorescence is measured at 620 nm (cryptate) and 665 nm (XL665). A ratio is calculated (665/620) and converted to POC relative to control and blank wells.
# 50 mM HEPES (Invitrogen #15630), 0.01% Brij-35 (sigma #B4184), 10 mM MgCl2 (Sigma M1028), 1 mM EGTA (Ambion AM9262) and 100 uM sodium orthovanedate (Sigma S6508), 1 mM DTT (Sigma D5545) and 10 nM supplement enzyme buffer (Cisbio cat#61SEBALB).
# [2] = system: BTK activity measured by IL-6 production in primary CD19+ cells; assay: Inhibition of IL-6 production in B cells co-stimulated with ODN 2006 and anti-hIgD; type: cell-based; details: B-cell, anti-human IgD + ODN 2006, 18-24 hours
# Procedure: (§1) The compounds described herein show a range of selectivities against EGFR as measured in cellular assays (BTK activity measured by IL-6 production in primary CD19^+ cells; EGFR activity measured by EGFR phosphorylation in A431 cells).
# Inhibition of IL-6 Production in B Cells Co-Stimulated with ODN 2006 and Anti-hIgD
# Primary CD19+ B cells (AllCells # PB010F) are thawed and plated in RPMI containing 10% HI FBS in a 384-well tissue cultured plate at 20,000 cells/well. The cells are treated with test compound (0.5% DMSO final concentration) and incubated for 1 hour at 37° C., 5% CO2. Cells are then stimulated with 5 ug/mL Goat F(ab′)2 anti-human IgD (SouthernBiotech #2032) and 2 uM ODN 2006 (InvivoGen # tlrl-2006) and incubated for 18-24 hours at 37° C., 5% CO2. IL-6 in the supernatant is measured using Meso Scale Discovery kit # K211AKB-6.
# [3] = system: EGFR phosphorylation in A431 cells; assay: Inhibition of EGFR autophosphorylation in A431 human epithelial cells stimulated with EGF; type: cell-based; details: A-431, 16 hours compound, EGF 60 ng/mL 10 minutes, read-out: A431 p-EGFR IC50
# Excerpt: as §1
# Inhibition of EGFR Autophosphorylation in A431 Human Epithelial Cells Stimulated with Epithelial Growth Factor
# A431 cells (ATCC # CRL-1555 FZ) are thawed and plated in DMEM containing 10% FBS in a 384-well tissue culture treated plate at 15,000 cells/well. After incubating for 24 hours at 37° C., 5% CO2, the cells are treated with test compound (1% DMSO final concentration) and incubated for 16 hours at 37° C., 5% CO2. EGF (Millipore, 01-107) is added at a final concentration of 60 ng/mL and incubated for 10 minutes. The medium is removed, the cells are lysed, and phospho EGFR is measured (Meso Scale Diagnostics, N31CB-1).
# T1 sequence (Q06187 whole entry): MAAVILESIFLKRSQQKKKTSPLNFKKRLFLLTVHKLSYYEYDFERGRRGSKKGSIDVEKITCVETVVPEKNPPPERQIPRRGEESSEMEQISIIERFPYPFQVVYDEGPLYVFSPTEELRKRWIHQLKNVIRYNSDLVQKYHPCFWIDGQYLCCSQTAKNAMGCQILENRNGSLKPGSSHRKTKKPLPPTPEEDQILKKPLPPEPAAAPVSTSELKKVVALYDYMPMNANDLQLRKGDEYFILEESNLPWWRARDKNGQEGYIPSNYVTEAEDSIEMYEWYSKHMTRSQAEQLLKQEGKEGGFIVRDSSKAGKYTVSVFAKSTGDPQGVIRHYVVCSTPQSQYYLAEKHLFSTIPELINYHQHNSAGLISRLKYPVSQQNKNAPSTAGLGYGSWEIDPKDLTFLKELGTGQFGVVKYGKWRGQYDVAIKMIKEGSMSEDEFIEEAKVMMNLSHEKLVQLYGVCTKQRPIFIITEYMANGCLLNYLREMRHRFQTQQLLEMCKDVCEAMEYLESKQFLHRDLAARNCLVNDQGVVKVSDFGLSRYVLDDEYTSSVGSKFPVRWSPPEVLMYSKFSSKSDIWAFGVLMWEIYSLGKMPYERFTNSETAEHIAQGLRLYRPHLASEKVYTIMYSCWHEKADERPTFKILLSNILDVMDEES
SMILES,IC50 [1],IC50 [2],IC50 [3]
C=CC(=O)N1CC2(CC(n3nc(-c4ccc(C(C)OC)cc4)c(C(N)=O)c3N)C2)C1 (stereo not shown) [Example 2],200 nM,–,–
CC#CC(=O)N1CC[C@]2(C1)C[C@H](n1nc(-c3ccc(C(C)OC)cc3)c(C(N)=O)c1N)C2 (stereo partly shown) [Example 10],9.3 nM,–,–
CC#CC(=O)N1CCC[C@]2(C1)C[C@H](n1nc(-c3ccc(COC)cc3)c(C(N)=O)c1N)C2 [Example 9],8.2 nM,6.3 nM,> 10 µM
C=CC(=O)N1CC2(CC(n3nc(-c4ccc(COC)cc4)c(C(N)=O)c3N)C2)C1 [Example 3],94 nM,–,–
CC#CC(=O)N1CC[C@]2(C1)C[C@H](n1nc(-c3ccc(C(C)OCC)cc3)c(C(N)=O)c1N)C2 (stereo partly shown) [Example 15],3.6 nM,–,–
CC#CC(=O)N1CC[C@]2(C1)C[C@H](n1nc(-c3ccc(C(O)C(C)C)cc3)c(C(N)=O)c1N)C2 (stereo partly shown) [Example 19],4.5 nM,5.1 nM,3 µM
CC#CC(=O)N1CC[C@]2(C1)C[C@H](n1nc(-c3ccc(CCO)cc3)c(C(N)=O)c1N)C2 [Example 25],1.4 nM,7 nM,> 10 µM
CCOC(C)c1ccc(-c2nn([C@H]3C[C@@]4(CCN(C(=O)C#CC5CC5)C4)C3)c(N)c2C(N)=O)cc1 (stereo partly shown) [Example 17],1.2 nM,–,–
CCC#CC(=O)N1CC[C@]2(C1)C[C@H](n1nc(-c3ccc(C(C)OCC)cc3)c(C(N)=O)c1N)C2 (stereo partly shown) [Example 16],1.8 nM,–,–
C=CC(=O)N1CC[C@]2(C1)C[C@H](n1nc(-c3ccc(COC)cc3)c(C(N)=O)c1N)C2 [Example 4],26 nM,–,–
C=CC(=O)N1CCC[C@]2(C1)C[C@@H](n1nc(-c3ccc(COC)cc3)c(C(N)=O)c1N)C2 [Example 6],460 nM,–,–
COCc1ccc(-c2nn([C@H]3C[C@@]4(CCN(C(=O)C#CC5CCC5)C4)C3)c(N)c2C(N)=O)cc1 [Example 14],0.6 nM,–,–
CC#CC(=O)N1CC[C@]2(C1)C[C@H](n1nc(-c3ccc(CO)cc3)c(C(N)=O)c1N)C2 [Example 21],2.5 nM,–,–
C=CC(=O)N1CCC[C@]2(C1)C[C@H](n1nc(-c3ccc(COC)cc3)c(C(N)=O)c1N)C2 [Example 7],450 nM,–,–
COCc1ccc(-c2nn([C@H]3C[C@@]4(CCN(C(=O)C#CC5CC5)C4)C3)c(N)c2C(N)=O)cc1 [Example 13],0.7 nM,–,–
CC#CC(=O)N1CC[C@]2(C1)C[C@H](n1nc(-c3ccc(C4(CO)CC4)cc3)c(C(N)=O)c1N)C2 [Example 26],2.4 nM,–,–
C=CC(=O)N1CC[C@]2(C1)C[C@H](n1nc(-c3ccc(CO)cc3)c(C(N)=O)c1N)C2 [Example 20],66 nM,–,–
C=CC(=O)N1CCC[C@]2(C1)C[C@@H](n1nc(-c3ccc(C(O)C4CC4)cc3)c(C(N)=O)c1N)C2 (stereo partly shown) [Example 23],68 nM,–,–
CC#CC(=O)N1CC[C@]2(C1)C[C@H](n1nc(-c3ccc(COCC)cc3)c(C(N)=O)c1N)C2 [Example 11],2.2 nM,–,–
CC#CC(=O)N1CC[C@]2(C1)C[C@H](n1nc(-c3ccc(S(C)(=O)=O)cc3)c(C(N)=O)c1N)C2 [Example 27],12 nM,93 nM,> 10 µM
C=CC(=O)N1CC2(CC(n3nc(-c4ccc(C(C)OCC)cc4)c(C(N)=O)c3N)C2)C1 (stereo not shown) [Example 1],100 nM,–,–
C=CC(=O)N1CC[C@]2(C1)C[C@H](n1nc(-c3ccc(C(O)C(C)C)cc3)c(C(N)=O)c1N)C2 (stereo partly shown) [Example 18],150 nM,–,–
CC#CC(=O)N1CC[C@]2(C1)C[C@H](n1nc(-c3ccc(COC)cc3)c(C(N)=O)c1N)C2 [Example 5],2 nM,2.4 nM,6.1 µM
CCC#CC(=O)N1CC[C@]2(C1)C[C@H](n1nc(-c3ccc(COC)cc3)c(C(N)=O)c1N)C2 [Example 12],0.9 nM,–,–
CC#CC(=O)N1CCC[C@]2(C1)C[C@@H](n1nc(-c3ccc(COC)cc3)c(C(N)=O)c1N)C2 [Example 8],160 nM,–,–
C=CC(=O)N1CC2(CC(n3nc(-c4ccc(C5(CO)CC5)cc4)c(C(N)=O)c3N)C2)C1 [Example 24],240 nM,–,–
CC#CC(=O)N1CCC[C@]2(C1)C[C@H](n1nc(-c3ccc(C(O)C4CC4)cc3)c(C(N)=O)c1N)C2 (stereo partly shown) [Example 22],59 nM,–,–
